Laboratory results: patent US12139492B2 (Endotarget Inc., priority 2021, dated 2024)
Read-outs that look alike come from different tables or passages of the source.

Legend:
Mino cells = experiment: Antiproliferative effect, MTS cell viability assay, Mino cells; format: cell-based; details: Mino mantle cell lymphoma cells, read-out: IC50 (anti-proliferation) Mino cells
Method in brief: (§1)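 Cells were exposed to compound at 0, 0.001, 0.01, 0.1, 1 and 10 μM for 72 h. Viability was then measured by MTS assay, reading formazan produced by metabolically active cells as absorbance at 490 nm.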

BTK = BTK (Homo sapiens, UniProt Q06187); experiment: Degradation of BTK protein in Namalwa cells (Western blot; DC50, Dmax); details: for DC50: read-out: DC50 (BTK degradation), concentration giving 50% reduction of BTK expression level, cell line not given; for Dmax: read-out: Dmax (BTK degradation); for degradation of BTK protein: Namalwa B lymphocyte cells, various concentrations, 24 hours, Western blot
BTK, sequence (Q06187 whole entry): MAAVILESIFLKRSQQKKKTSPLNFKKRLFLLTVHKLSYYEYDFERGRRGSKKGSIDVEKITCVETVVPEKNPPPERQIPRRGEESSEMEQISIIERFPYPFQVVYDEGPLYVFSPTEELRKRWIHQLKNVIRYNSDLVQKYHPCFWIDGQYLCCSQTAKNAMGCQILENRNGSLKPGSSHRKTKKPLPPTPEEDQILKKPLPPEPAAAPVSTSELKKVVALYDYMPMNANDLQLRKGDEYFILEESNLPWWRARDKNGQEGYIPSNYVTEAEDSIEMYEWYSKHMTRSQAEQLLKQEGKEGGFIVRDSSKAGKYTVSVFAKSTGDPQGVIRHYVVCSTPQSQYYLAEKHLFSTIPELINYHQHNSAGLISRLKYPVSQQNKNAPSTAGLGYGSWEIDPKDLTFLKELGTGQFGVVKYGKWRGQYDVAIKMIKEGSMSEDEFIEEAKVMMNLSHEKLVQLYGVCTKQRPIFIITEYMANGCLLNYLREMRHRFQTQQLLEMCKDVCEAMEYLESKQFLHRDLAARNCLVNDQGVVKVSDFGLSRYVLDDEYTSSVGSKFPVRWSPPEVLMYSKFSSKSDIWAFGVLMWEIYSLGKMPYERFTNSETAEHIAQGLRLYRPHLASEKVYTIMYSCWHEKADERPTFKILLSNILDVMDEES

JeKo-1 cells = experiment: Antiproliferative effect, MTS cell viability assay, JeKo-1 cells; format: cell-based; details: JeKo-1 mantle cell lymphoma cells, read-out: IC50 (anti-proliferation) JeKO-1 cells
Method in brief: as §1

Row | Structure (SMILES) | IC50 (Mino cells; Homo sapiens, MINO) [nM] | DC50 (BTK) [nM] | Dmax (BTK) [%] | IC50 (JeKo-1 cells; Homo sapiens) [nM] | degradation of BTK protein (BTK) | IC50 (Mino cells) [nM] | IC50 (JeKo-1 cells) [nM]
1 | NC(=O)c1c(-c2ccc(Oc3ccccc3)cc2)nn2c1NCC[C@H]2C1CCN(CC2CCN(C(=O)N3CCC(CN4CCN(c5ccc6c(c5)C(=O)N(C5CCC(=O)NC5=O)C6=O)CC4)CC3)CC2)CC1 (stereo partly drawn) [Compound 409, (7S)-7-(1-((1-(4-((4-(2-(2,6-dioxopiperidin-3-yl)-1,3-dioxoisoindolin-5-yl)piperazin-1-yl)methyl)piperidine-1-carbonyl)piperidin-4-yl)methyl)piperidin-4-yl)-2-(4-phenoxyphenyl)-4,5,6,7-tetrahydropyrazolo[1,5-a]pyrimidine-3-carboxamide] | < 1000 | < 10 | > 90 | 1000 to 10000 |  |  | 
2 | NC(=O)c1c(-c2ccc(Oc3ccccc3)cc2)nn2c1NCC[C@H]2C1CCN(CC2CCN(C(=O)N3CCC(CN4CCN(c5ccc6c(c5)CN(C5CCC(=O)NC5=O)C6=O)CC4)CC3)CC2)CC1 (stereo partly drawn) [Compound 410, (7S)-7-(1-((1-(4-((4-(2-(2,6-dioxopiperidin-3-yl)-1-oxoisoindolin-5-yl)piperazin-1-yl)methyl)piperidine-1-carbonyl)piperidin-4-yl)methyl)piperidin-4-yl)-2-(4-phenoxyphenyl)-4,5,6,7-tetrahydropyrazolo[1,5-a]pyrimidine-3-carboxamide] | 1000 to 10000 | < 10 | > 90 | 1000 to 10000 |  |  | 
3 | NC(=O)c1c(-c2ccc(Oc3ccccc3)cc2)nn2c1NCC[C@H]2C1CCN(CC2CCN(C(=O)N3CCN(CC4CCN(c5ccc6c(c5)C(=O)N(C5CCC(=O)NC5=O)C6=O)CC4)CC3)CC2)CC1 (stereo partly drawn) [Compound 411, (7S)-7-(1-((1-(4-((1-(2-(2,6-dioxopiperidin-3-yl)-1,3-dioxoisoindolin-5-yl)piperidin-4-yl)methyl)piperazine-1-carbonyl)piperidin-4-yl)methyl)piperidin-4-yl)-2-(4-phenoxyphenyl)-4,5,6,7-tetrahydropyrazolo[1,5-a]pyrimidine-3-carboxamide] | < 1000 | 10 to 50 | > 90 | 1000 to 10000 |  |  | 
4 | NC(=O)c1c(-c2ccc(Oc3ccccc3)cc2)nn2c1NCC[C@H]2C1CCN(CC2CCN(C(=O)N3CCN(CC4CCN(c5ccc6c(c5)CN(C5CCC(=O)NC5=O)C6=O)CC4)CC3)CC2)CC1 (stereo partly drawn) [Compound 412, (7S)-7-(1-((1-(4-((1-(2-(2,6-dioxopiperidin-3-yl)-1-oxoisoindolin-5-yl)piperidin-4-yl)methyl)piperazine-1-carbonyl)piperidin-4-yl)methyl)piperidin-4-yl)-2-(4-phenoxyphenyl)-4,5,6,7-tetrahydropyrazolo[1,5-a]pyrimidine-3-carboxamide] | 1000 to 10000 | 10 to 50 | > 90 | < 1000 |  |  | 
5 | NC(=O)c1c(-c2ccc(Oc3ccccc3)cc2)nn2c1NCC[C@H]2C1CCN(CC2CCN(C(=O)N3CCC(CC4CCN(c5ccc6c(c5)CN(C5CCC(=O)NC5=O)C6=O)CC4)CC3)CC2)CC1 (stereo partly drawn) [Compound 414, (7S)-7-(1-((1-(4-((1-(2-(2,6-dioxopiperidin-3-yl)-1-oxoisoindolin-5-yl)piperidin-4-yl)methyl)piperidine-1-carbonyl)piperidin-4-yl)methyl)piperidin-4-yl)-2-(4-phenoxyphenyl)-4,5,6,7-tetrahydropyrazolo[1,5-a]pyrimidine-3-carboxamide] | < 1000 | < 10 | > 90 | < 1000 |  |  | 
6 | NC(=O)c1c(-c2ccc(Oc3ccccc3)cc2)nn2c1NCC[C@H]2C1CCN(CC2CCN(C(=O)N3CCC(CN4CCC(c5ccc6c(c5)C(=O)N(C5CCC(=O)NC5=O)C6=O)CC4)CC3)CC2)CC1 (stereo partly drawn) [Compound 415, (7S)-7-(1-((1-(4-((4-(2-(2,6-dioxopiperidin-3-yl)-1,3-dioxoisoindolin-5-yl)piperidin-1-yl)methyl)piperidine-1-carbonyl)piperidin-4-yl)methyl)piperidin-4-yl)-2-(4-phenoxyphenyl)-4,5,6,7-tetrahydropyrazolo[1,5-a]pyrimidine-3-carboxamide] | < 1000 | 10 to 50 | > 75 | 1000 to 10000 |  |  | 
7 | NC(=O)c1c(-c2ccc(Oc3ccccc3)cc2)nn2c1NCC[C@H]2C1CCN(CC2CCN(C(=O)N3CCC(CN4CCC(c5ccc6c(c5)CN(C5CCC(=O)NC5=O)C6=O)CC4)CC3)CC2)CC1 (stereo partly drawn) [Compound 416, (7S)-7-(1-((1-(4-((4-(2-(2,6-dioxopiperidin-3-yl)-1-oxoisoindolin-5-yl)piperidin-1-yl)methyl)piperidine-1-carbonyl)piperidin-4-yl)methyl)piperidin-4-yl)-2-(4-phenoxyphenyl)-4,5,6,7-tetrahydropyrazolo[1,5-a]pyrimidine-3-carboxamide] | 1000 to 10000 | 10 to 50 | > 75 | 1000 to 10000 |  |  | 
8 | Nc1ncnc2c1c(-c1ccc(Oc3ccccc3)cc1)nn2C1CCN(CCOCCOCCN2CC=C(c3ccc4c(c3)CN(C3CCC(=O)NC3=O)C4=O)CC2)CC1 (stereo not shown) [Compound 417, 3-(5-(1-(2-(2-(2-(4-(4-amino-3-(4-phenoxyphenyl)-1H-pyrazolo[3,4-d]pyrimidin-1-yl)piperidin-1-yl)ethoxy)ethoxy)ethyl)-1,2,3,6-tetrahydropyridin-4-yl)-1-oxoisoindolin-2-yl)piperidine-2,6-dione] | 1000 to 10000 | 10 to 50 | > 75 | 1000 to 10000 | dose-dependent degradation |  | 
9 | Nc1ncnc2c1c(-c1ccc(Oc3ccccc3)cc1)nn2C1CCN(CCOCCOCCN2CCC(c3ccc4c(c3)C(=O)N(C3CCC(=O)NC3=O)C4=O)CC2)CC1 (stereo not shown) [Compound 418, 5-(1-(2-(2-(2-(4-(4-amino-3-(4-phenoxyphenyl)-1H-pyrazolo[3,4-d]pyrimidin-1-yl)piperidin-1-yl)ethoxy)ethoxy)ethyl)piperidin-4-yl)-2-(2,6-dioxopiperidin-3-yl)isoindoline-1,3-dione] |  | < 10 | > 90 |  | dose-dependent degradation | 1000 to 10000 | 1000 to 10000
10 | Nc1ncnc2c1c(-c1ccc(Oc3ccccc3)cc1)nn2C1CCN(CC2CCN(/C=C\C(=O)CN3CCN(c4ccc5c(c4)CN(C4CCC(=O)NC4=O)C5=O)CC3)CC2)CC1 (stereo not shown) [Compound 421, (Z)-3-(5-(4-(4-(4-((4-(4-amino-3-(4-phenoxyphenyl)-1H-pyrazolo[3,4-d]pyrimidin-1-yl)piperidin-1-yl)methyl)piperidin-1-yl)-2-oxobut-3-en-1-yl)piperazin-1-yl)-1-oxoisoindolin-2-yl)piperidine-2,6-dione] | 1000 to 10000 | < 10 | > 90 | 1000 to 10000 | dose-dependent degradation |  | 
11 | Nc1ncnc2c1c(-c1ccc(Oc3ccccc3)cc1)nn2C1CCN(CC2CCN(CCCC(=O)N3CCC(c4ccc5c(c4)CN(C4CCC(=O)NC4=O)C5=O)CC3)CC2)CC1 (stereo not shown) [Compound 422, 3-(5-(1-(4-(4-((4-(4-amino-3-(4-phenoxyphenyl)-1H-pyrazolo(3,4-d)pyrimidin-1-yl)piperidin-1-yl)methyl)piperidin-1-yl)butanoyl)piperidin-4-yl)-1-oxoisoindolin-2-yl)piperidine-2,6-dione] | < 1000 | < 10 | > 90 | < 1000 |  |  | 
12 | Nc1ncnc2c1c(-c1ccc(Oc3ccccc3)cc1)nn2C1CCN(CC2CCN(CC3CN(c4ccc5c(c4)C(=O)N(C4CCC(=O)NC4=O)C5=O)C3)C2)CC1 (stereo not shown) [Compound 423, 5-(3-((3-((4-(4-amino-3-(4-phenoxyphenyl)-1H-pyrazolo(3,4-d)pyrimidin-1-yl)piperidin-1-yl)methyl)pyrrolidin-1-yl)methyl)azetidin-1-yl)-2-(2,6-dioxopiperidin-3-yl)isoindoline-1,3-dione] | < 1000 | 10 to 50 | > 90 | 1000 to 10000 | dose-dependent degradation |  | 
13 | Nc1ncnc2c1c(-c1ccc(Oc3ccccc3)cc1)nn2C1CCN(C[C@H]2CCN(CC3CN(c4ccc5c(c4)C(=O)N(C4CCC(=O)NC4=O)C5=O)C3)C2)CC1 (stereo partly drawn) [Compound 423a, 5-(3-(((R)-3-((4-(4-amino-3-(4-phenoxyphenyl)-1H-pyrazolo[3,4-d]pyrimidin-1-yl)piperidin-1-yl)methyl)pyrrolidin-1-yl)methyl)azetidin-1-yl)-2-(2,6-dioxopiperidin-3-yl)isoindoline-1,3-dione] | < 1000 | 10 to 50 | > 90 | 1000 to 10000 |  |  | 
14 | Nc1ncnc2c1c(-c1ccc(Oc3ccccc3)cc1)nn2C1CCN(C[C@@H]2CCN(CC3CN(c4ccc5c(c4)C(=O)N(C4CCC(=O)NC4=O)C5=O)C3)C2)CC1 (stereo partly drawn) [Compound 423b, 5-(3-(((S)-3-((4-(4-amino-3-(4-phenoxyphenyl)-1H-pyrazolo[3,4-d]pyrimidin-1-yl)piperidin-1-yl)methyl)pyrrolidin-1-yl)methyl)azetidin-1-yl)-2-(2,6-dioxopiperidin-3-yl)isoindoline-1,3-dione] | < 1000 | 10 to 50 | > 90 | 1000 to 10000 |  |  | 
15 | Nc1ncnc2c1c(-c1ccc(Oc3ccccc3)cc1)nn2C1CCN(CC2CCN(CC3CN(c4ccc5c(c4)CN(C4CCC(=O)NC4=O)C5=O)C3)C2)CC1 (stereo not shown) [Compound 424, 3-(5-(3-((3-((4-(4-amino-3-(4-phenoxyphenyl)-1H-pyrazolo[3,4-d]pyrimidin-1-yl)piperidin-1-yl)methyl)pyrrolidin-1-yl)methyl)azetidin-1-yl)-1-oxoisoindolin-2-yl)piperidine-2,6-dione] | < 1000 | 10 to 50 | > 90 | < 1000 |  |  | 
